# Laboratory results reported in article PMC2528936, “Snake Cathelicidin from Bungarus fasciatus Is a Potent Peptide Antibiotics” (PLoS ONE, 2008).
# Read-outs that look alike come from different tables or passages of the source. Where no end group is shown, it is not given here.
# How the values were obtained:
# S. aureus ATCC25923 = assay: MIC determination; assay type: cell-based, Staphylococcus aureus; settings: liquid LB broth, no visible growth; mean of three independent experiments in duplicates; ND = no detectable activity
# Bacillus subtilis = assay: microbe, parasite or virus in culture
# Experimental: (§1) Antimicrobial activities of cathelicidin-BF and cathelicidin-BF15 ([…]) were tested according to our previous methods [39]–[42]. […] The details were provided in the Materials and Methods S1.
# (§2) Standard and clinically isolated microorganism strains were used for antimicrobial assays. Bacteria were first grown in LB (Luria-Bertani) broth to an OD600 nm of 0.8. A 10 µl aliquot of the bacteria was then taken and added to 8 ml of fresh LB broth with 0.7% agar and poured over a 90 mm Petri dish containing 25 ml of 1.5% agar in LB broth. After the top agar hardened, a 20 µl aliquot of the test sample filtered on a 0.22 µm Millipore filter was dropped onto the surface of the top agar and completely dried before being incubated overnight at 37 °C. If the sample examined had antimicrobial activity, a clear zone would be formed on the surface of the top agar representing inhibition of bacterial growth. Minimal inhibitory concentration (MIC) was determined in liquid LB medium by incubating the bacteria in LB broth with variable amounts of the sample tested. The MIC at which no visible growth occurred was recorded. In the assays of anti-fungi activity, for strains of Aspergillus terreus, A. niculans, and Chaetomium globosum, the fungal spore concentration was first counted under a microscope. The fungi with an initial concentration of 10^5 spores/ml were cultured with variable amounts of the sample tested in yeast extract-peptone-dextrose broth.
# [1] = tested on: Escherichia coliATCC25922; assay: microbe, parasite or virus in culture
# Experimental: as §1, §2
# Bacillus pumilus = assay: microbe, parasite or virus in culture
# Experimental: as §1, §2
# [2] = tested on: Pseudomonas aeruginosa ATCC27853; assay: microbe, parasite or virus in culture
# Experimental: as §1, §2
# [3] = tested on: Staphylococcus aureus ATCC2592; assay: microbe, parasite or virus in culture
# Experimental: as §1, §2
# Bacillus cereus = assay: microbe, parasite or virus in culture
# Experimental: as §1, §2
# [4] = tested on: Acinetobacter calcoaceticus; assay: microbe, parasite or virus in culture
# Experimental: as §1, §2
# [5] = tested on: Salmonella typhi (IS, DR); assay: MIC determination; assay type: cell-based; settings: clinically isolated strain, drug resistance for ampicillin and benzylpenicillin; liquid LB broth; mean of three independent experiments in duplicates; ND = no detectable activity
# [6] = Serum stability, residual antimicrobial activity; assay type: in vitro ADME; settings: 100 µg/ml peptide, 90% fresh normal human serum, 37°C, 0-24 hours; residual activity against E. coli 08A866 by radial diffusion assay
# Experimental: For cathelicidin-BF, antimicrobial activities against E. coli 08A866 could not be detected after 3 h-incubation, while cathelicidin-BF15 could keep its antimicrobial activity up to 10 h in 90% fresh normal human serum.
# [7] = tested on: S. aureus 08032706 (IS, DR); settings: clinically isolated strain, drug resistance for ampicillin and benzylpenicillin; liquid LB broth; mean of three independent experiments in duplicates; ND = no detectable activity
# Experimental: as §1, §2
# [8] = tested on: K. pneumoniae 08040202 (IS, DR); settings: clinically isolated strain, drug resistance for ampicillin and benzylpenicillin; liquid LB broth; mean of three independent experiments in duplicates; ND = no detectable activity
# Experimental: as §1, §2
# [9] = tested on: P.aeruginosa 08031014(IS, DR); settings: clinically isolated strain, drug resistance for ampicillin and benzylpenicillin; liquid LB broth; mean of three independent experiments in duplicates; ND = no detectable activity
# Experimental: as §1, §2
# [10] = tested on: P.aeruginosa 08031205(IS, DR); settings: clinically isolated strain, drug resistance for ampicillin and benzylpenicillin; liquid LB broth; mean of three independent experiments in duplicates; ND = no detectable activity
# Experimental: as §1, §2
# [11] = tested on: S. aureus 08032810 (IS, DR); settings: clinically isolated strain, drug resistance for ampicillin and benzylpenicillin; liquid LB broth; mean of three independent experiments in duplicates; ND = no detectable activity
# Experimental: as §1, §2
# Pseudomonas luteola = settings: liquid LB broth, no visible growth; mean of three independent experiments in duplicates; ND = no detectable activity
# Experimental: as §1, §2
# [12] = tested on: Sphingobacterium siyangense; settings: liquid LB broth, no visible growth; mean of three independent experiments in duplicates; ND = no detectable activity
# Experimental: as §1, §2
# [13] = tested on: Enterococcus faecium (IS, DR); settings: clinically isolated strain, drug resistance for ampicillin and benzylpenicillin; liquid LB broth; mean of three independent experiments in duplicates; ND = no detectable activity
# Experimental: as §1, §2
# [14] = tested on: S. aureus 08031013 (IS, DR); settings: clinically isolated strain, drug resistance for ampicillin and benzylpenicillin; liquid LB broth; mean of three independent experiments in duplicates; ND = no detectable activity
# Experimental: as §1, §2
# [15] = tested on: E. coli 08040726 (IS, DR); settings: clinically isolated strain, drug resistance for ampicillin and benzylpenicillin; liquid LB broth; mean of three independent experiments in duplicates; ND = no detectable activity
# Experimental: as §1, §2
# [16] = tested on: S. aureus 08A865 (IS, DR); settings: clinically isolated strain, drug resistance for ampicillin and benzylpenicillin; liquid LB broth; mean of three independent experiments in duplicates; ND = no detectable activity
# Experimental: as §1, §2
# [17] = tested on: Aspergillus terreus GIM3.34; settings: saprophytic fungus; 10^5 spores/ml, yeast extract-peptone-dextrose broth; mean of three independent experiments in duplicates; ND = no detectable activity
# Experimental: as §1, §2
# Serratia marcescens SA = settings: liquid LB broth, no visible growth; mean of three independent experiments in duplicates; ND = no detectable activity
# Experimental: as §1, §2
# [18] = tested on: K. pneumoniae 08031012 (IS, DR); settings: clinically isolated strain, drug resistance for ampicillin and benzylpenicillin; liquid LB broth; mean of three independent experiments in duplicates; ND = no detectable activity
# Experimental: as §1, §2
# [19] = tested on: Sacharibacillus kuerlensis; settings: liquid LB broth, no visible growth; mean of three independent experiments in duplicates; ND = no detectable activity
# Experimental: as §1, §2
# [20] = tested on: S. aureus 08A875 (IS, DR); settings: clinically isolated strain, drug resistance for ampicillin and benzylpenicillin; liquid LB broth; mean of three independent experiments in duplicates; ND = no detectable activity
# Experimental: as §1, §2
# Serratia marcescens MA = settings: liquid LB broth, no visible growth; mean of three independent experiments in duplicates; ND = no detectable activity
# Experimental: as §1, §2
# P. aeruginosa (IS, DR) = settings: clinically isolated strain, drug resistance for ampicillin and benzylpenicillin; liquid LB broth; mean of three independent experiments in duplicates; ND = no detectable activity
# Experimental: as §1, §2
# [21] = tested on: E. coli 08032813 (IS, DR); settings: clinically isolated strain, drug resistance for ampicillin and benzylpenicillin; liquid LB broth; mean of three independent experiments in duplicates; ND = no detectable activity
# Experimental: as §1, §2
# E. coli = settings: for most of E. coli (standard and clinically isolated strains)
# Experimental: as §1, §2
# [22] = tested on: K. pneumoniae 08040724 (IS, DR); settings: clinically isolated strain, drug resistance for ampicillin and benzylpenicillin; liquid LB broth; mean of three independent experiments in duplicates; ND = no detectable activity
# Experimental: as §1, §2
# [23] = tested on: Klebsiella pneumoniae (IS, DR); settings: clinically isolated strain, drug resistance for ampicillin and benzylpenicillin; liquid LB broth; mean of three independent experiments in duplicates; ND = no detectable activity
# Experimental: as §1, §2
# [24] = tested on: E. coli 08040722 (IS, DR); settings: clinically isolated strain, drug resistance for ampicillin and benzylpenicillin; liquid LB broth; mean of three independent experiments in duplicates; ND = no detectable activity
# Experimental: as §1, §2
# Chaetomium globosum = settings: saprophytic fungus; 10^5 spores/ml, yeast extract-peptone-dextrose broth; mean of three independent experiments in duplicates; ND = no detectable activity
# Experimental: as §1, §2
# Aspergillus niculans = settings: saprophytic fungus; 10^5 spores/ml, yeast extract-peptone-dextrose broth; mean of three independent experiments in duplicates; ND = no detectable activity
# Experimental: as §1, §2
# [25] = tested on: S. aureus 08031002 (IS, DR); settings: clinically isolated strain, drug resistance for ampicillin and benzylpenicillin; liquid LB broth; mean of three independent experiments in duplicates; ND = no detectable activity
# Experimental: as §1, §2
# E. coli 08A866(IS, DR) = settings: clinically isolated strain, drug resistance for ampicillin and benzylpenicillin; liquid LB broth; mean of three independent experiments in duplicates; ND = no detectable activity
# Experimental: as §1, §2
# [26] = tested on: S. aureus 08032712 (IS, DR); settings: clinically isolated strain, drug resistance for ampicillin and benzylpenicillin; liquid LB broth; mean of three independent experiments in duplicates; ND = no detectable activity
# Experimental: as §1, §2
# E. coli 08A852 (IS, DR) = settings: clinically isolated strain, drug resistance for ampicillin and benzylpenicillin; liquid LB broth; mean of three independent experiments in duplicates; ND = no detectable activity
# Experimental: as §1, §2
# [27] = tested on: E. coli 08031017 (IS, DR); settings: clinically isolated strain, drug resistance for ampicillin and benzylpenicillin; liquid LB broth; mean of three independent experiments in duplicates; ND = no detectable activity
# Experimental: as §1, §2
# [28] = tested on: mouse macrophage (RAW264.7); settings: up to 400 µg/ml, data not shown
# Experimental: (§3) Cytotoxicity and serum stability were measured according the methods described by Mygind et al. The details were provided in the Materials and Methods S1.
# (§4) Hemolysis assays were undertaken using human red blood cells in liquid medium as our previous reoprts. Serial dilutions of the peptide were used, and after incubation at 37 °C for 30 min, the cells were centrifuged and the absorbance in the supernatant was measured at 540 nm. Maximum hemolysis was determined by adding 1% Triton X-100 to a sample of cells. Cytotoxicity was measured according the methods described by Mygind et al, using mouse macrophage (RAW264.7) and tumor cell (HepG2). Serum stability was checked by incubating 100 µg/ml cathelicidin-BF with 90% fresh normal human serum at 37 °C for 0, 1, 2, 3, 6, and 24 hours. Residual antimicrobial activities were measured by performing radial diffusion assays with E. coli 08A866 as described by Mygind et al.
# [29] = tested on: human liver tumor cell (HepG2); settings: up to 400 µg/ml, data not shown
# Experimental: as §3, §4
# [30] = tested on: K. pneumoniae standard strain; assay: MIC determination, standard strain; assay type: cell-based; settings: Klebsiella pneumoniae
# Experimental: as §1
# as §2, with “The fungi with an initial concentration of 10^5 spores/ml were cultured with variable amounts of the sample tested in yeast extract-peptone-dextrose broth.” left out
# [31] = tested on: Candida albicans ATCC2002; assay: microbe, parasite or virus in culture; settings: Candida albicans
# Experimental: as §1, §2
# [32] = liquid LB broth, no visible growth, mean of three independent experiments in duplicates, ND = no detectable activity
# [33] = standard strain, liquid LB broth, no visible growth, mean of three independent experiments in duplicates, ND = no detectable activity
compound,measurement,setting,value
KFFRKLKKSVKKRAKEFFKKPRVIGVSIPF [cathelicidin-BF],MIC,S. aureus ATCC25923,>400 µg/mL
same,MIC,Bacillus subtilis; [32],9.4 µg/mL
same,MIC,[1]; [33],2.3 µg/mL
same,MIC,Bacillus pumilus; [32],9.4 µg/mL
same,MIC,[2]; [33],1.2 µg/mL
same,MIC,[3]; [33],4.7 µg/mL
same,MIC,Bacillus cereus; [32],1.2 µg/mL
same,MIC,[4]; [32],2.3 µg/mL
same,MIC,[5],1.2 µg/mL
same,incubation time after which antimicrobial activities could not be detected,[6],3 h
same,MIC,[7],>100 µg/mL
same,MIC,[8],0.6 µg/mL
same,MIC,[9],18.7 µg/mL
same,MIC,[10],9.4 µg/mL
same,MIC,[11],>100 µg/mL
same,MIC,Pseudomonas luteola,1.2 µg/mL
same,MIC,[12],9.4 µg/mL
same,MIC,[13],150 µg/mL
same,MIC,[14],>100 µg/mL
same,MIC,[15],0.6 µg/mL
same,MIC,[16],>400 µg/mL
same,MIC,[17],18.7 µg/mL
same,MIC,Serratia marcescens SA,>400 µg/mL
same,MIC,[18],9.4 µg/mL
same,MIC,[19],4.7 µg/mL
same,MIC,[20],75 µg/mL
same,MIC,Serratia marcescens MA,>400 µg/mL
same,MIC,"P. aeruginosa (IS, DR)",2.3 µg/mL
same,MIC,[21],2.3 µg/mL
same,MIC,E. coli,lower than 2.3 µg/ml
same,MIC,[22],0.3 µg/mL
same,MIC,[23],4.7 µg/mL
same,MIC,[24],0.6 µg/mL
same,MIC,Chaetomium globosum,37.5 µg/mL
same,MIC,Aspergillus niculans,18.7 µg/mL
same,MIC,[25],>100 µg/mL
same,MIC,"E. coli 08A866(IS, DR)",0.6 µg/mL
same,MIC,[26],>100 µg/mL
same,MIC,"E. coli 08A852 (IS, DR)",1.2 µg/mL
same,MIC,[27],2.3 µg/mL
same,cytotoxicity,[28],neither cytotoxic
same,cytotoxicity,[28]; listed as Cathelicidin-BF,No hemolytic and cytotoxic activity
same,cytotoxicity,[29],neither cytotoxic
same,cytotoxicity,[29]; listed as Cathelicidin-BF,No hemolytic and cytotoxic activity
CC1(C)S[C@@H]2[C@H](NC(=O)Cc3ccccc3)C(=O)N2[C@H]1C(=O)O [benzylpenicillin],MIC,[30],18.7 µg/mL
same,MIC,Bacillus subtilis; Bacillus subtilis,0.004 µg/mL
same,MIC,[31],0.03 µg/mL
same,MIC,"[1]; Escherichia, COLIATCC25922",37.5 µg/mL
same,MIC,Bacillus pumilus; Bacillus pumilus,0.015 µg/mL
same,MIC,"[2]; Pseudomonas aeruginosa, ATCC27853",18.7 µg/mL
same,MIC,"[3]; Staphylococcus aureus, ATCC2592",0.03 µg/mL
same,MIC,Bacillus cereus; Bacillus cereus,150 µg/mL
same,MIC,[4]; Acinetobacter calcoaceticus,37.5 µg/mL
same,MIC,[17],no effect
same,MIC,Chaetomium globosum,no effect
same,MIC,Aspergillus niculans,no effect
